# Measured values reported in patent publication US7671061B2, “Methods and compositions for treating pain” (Hydra Biosciences, Inc., priority 2005, dated 2010).
# pIC50: −log10 of the molar value.
# Target: T1, hTRPA1 (Homo sapiens, UniProt O75762, K186N)
# T1 construct: expressed in transfected cells; host or cells: HEK293/TREx (Invitrogen), induced with tetracycline
# Assay: High throughput Ca2+ fluorescence (Fluo4) assay, AITC stimulation
# Assay type: cell-based
# Settings: Table 1; read-out: hTRPA1 Fluo4 IC50
# Description: The assay depended on detection of the rise in intracellular Ca^2+ concentration ([Ca^2+]i) following channel activation in cells inducibly expressing the TRPA1 channel. Ca^2+ rise was quantified with the use of fluorescent Ca^2+ indicators that were loaded into cells and thereafter indicated the [Ca^2+]i. Ca^2+ influx followed activation of the TRPA1 channel. Compounds inhibiting the [Ca^2+]i rise were considered hits for further investigation.
# These cells were maintained in the growth medium recommended by the manufacturer supplemented with 100 μg/ml hygromycin to promote retention of the TRPA1 construct. After growing to near confluency, cells were plated at a density of ˜25,000 cells/well in 384 well CellBind plates (Corning) in the presence of 1 μg/ml tetracycline, and allowed to grow for 20-30 hrs. A nearly confluent monolayer resulted. Cells were then loaded with Ca^2+ dye: Fura-2/AM or Fluo4/AM was added to the wells to a final concentration of 2 μM or 1 μM, respectively, and incubated for 80 min or 60 min, respectively, at room temperature. […] Frames were acquired at a rate of 0.2 Hz. During the assay, the plates were continuously […], with pipette mixing of wells following addition of each reagent. For the screening assay, 13 μl of a diluted stock (at 50 μM) was added to each well for 2 minutes following the collection of a short (4 frame) baseline. […] Data was collected for ˜3 minutes following addition of AITC, where the fluorescent intensity (for Fluo4) and the F340/F380 ratio (for Fura-2) were proportional to the [Ca^2+]i. Negative controls consisted of HEK293/TREx TRPA1 cells exposed to AITC, but no compound. […] These controls defined a screening window, and “hits” were defined as those compounds inhibiting the fluorescence response by at least 40%. IC50 values were determined for compounds defined as “hits.” The Fluo4 cell-based fluorescence assay was used to determine the intracellular Ca^2+ concentration in the presence of varying drug concentration. […] Compounds were tested in triplicate at all concentrations. Standard software was used to fit IC50 curves.
# T1 sequence (O75762 whole entry K186N): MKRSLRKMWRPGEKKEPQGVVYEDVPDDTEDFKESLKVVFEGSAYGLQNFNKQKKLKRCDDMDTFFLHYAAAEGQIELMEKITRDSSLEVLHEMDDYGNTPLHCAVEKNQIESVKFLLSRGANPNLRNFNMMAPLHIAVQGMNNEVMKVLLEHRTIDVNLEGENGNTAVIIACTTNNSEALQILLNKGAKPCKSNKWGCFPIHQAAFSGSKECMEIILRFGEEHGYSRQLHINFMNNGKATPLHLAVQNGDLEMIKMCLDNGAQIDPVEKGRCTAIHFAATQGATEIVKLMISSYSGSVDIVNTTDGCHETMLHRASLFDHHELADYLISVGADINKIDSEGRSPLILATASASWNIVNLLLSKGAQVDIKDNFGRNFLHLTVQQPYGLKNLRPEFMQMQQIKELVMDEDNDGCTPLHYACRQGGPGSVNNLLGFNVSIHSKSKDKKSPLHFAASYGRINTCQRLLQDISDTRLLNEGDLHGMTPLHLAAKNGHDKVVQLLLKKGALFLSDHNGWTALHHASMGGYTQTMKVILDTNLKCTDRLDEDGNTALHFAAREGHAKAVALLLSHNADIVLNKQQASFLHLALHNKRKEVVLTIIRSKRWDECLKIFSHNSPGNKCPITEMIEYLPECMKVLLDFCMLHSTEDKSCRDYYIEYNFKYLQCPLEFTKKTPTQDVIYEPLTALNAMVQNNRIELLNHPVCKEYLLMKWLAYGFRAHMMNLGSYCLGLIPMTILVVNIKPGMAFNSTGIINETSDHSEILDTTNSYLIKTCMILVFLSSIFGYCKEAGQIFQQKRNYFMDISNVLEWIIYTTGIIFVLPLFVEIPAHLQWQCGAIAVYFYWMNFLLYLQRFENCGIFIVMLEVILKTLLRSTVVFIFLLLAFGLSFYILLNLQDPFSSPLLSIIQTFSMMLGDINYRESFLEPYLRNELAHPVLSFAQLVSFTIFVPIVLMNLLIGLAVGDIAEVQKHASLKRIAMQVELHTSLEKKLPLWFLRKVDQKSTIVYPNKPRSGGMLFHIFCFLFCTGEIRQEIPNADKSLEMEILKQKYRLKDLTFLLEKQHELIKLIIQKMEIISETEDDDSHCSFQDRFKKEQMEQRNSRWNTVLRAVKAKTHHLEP
row,pIC50,Compound
1,< 5.00,CC1=C(C(=O)OC(C)C)C(c2ccc(C(C)C)cc2)NC(=O)N1 (stereo not drawn)
2,< 5.00,CCOc1ccc(C2NC(=S)NC(C)=C2C(=O)OC(C)C)cc1 (stereo not drawn)
3,< 5.00,COC(=O)C1=C(CN2CCCCC2)NC(=O)NC1c1ccc(C)cc1C (stereo not drawn)
4,< 5.00,CC1=C(C(=O)OCc2ccccc2)C(c2ccc(C(C)C)cc2)NC(=O)N1 (stereo not drawn)
5,< 5.00,CC1=C(C(=O)N(C)C)C(c2ccccc2)NC(=S)N1 (stereo not drawn)
6,< 5.00,CCOC(=O)C1=C(C)NC(=S)NC1c1ccc(OC(C)C)cc1 (stereo not drawn)
7,< 5.00,CCOC(=O)C1=C(C)N(C)C(=S)NC1c1cccc(Cl)c1Cl (stereo not drawn)
8,< 5.00,CC1=C(C(=O)OCC(F)(F)F)C(c2ccc(N(C)C)cc2)NC(=O)N1 (stereo not drawn)
9,< 5.00,CC1=C(C(=O)OC(C)C)C(c2cccc(Cl)c2)NC(=O)N1 (stereo not drawn)
10,< 5.00,COC(=O)C1=C(CN2CCN(C)CC2)NC(=O)NC1c1cc(C)ccc1C (stereo not drawn)
11,< 5.00,COC(=O)C1=C(C)N(C)C(=O)NC1c1c(Cl)cccc1Cl (stereo not drawn)
12,< 5.00,CC1=C(C(=O)OCc2ccccc2)C(c2ccccc2F)NC(=O)N1 (stereo not drawn)
13,≤ 4.52,COC(=O)C1=C(C)N(C)C(=S)NC1c1ccc(OC)cc1 (stereo not drawn)
14,< 5.00,CCCC1=C(C(=O)OCC)C(c2ccc(CC)cc2)NC(=O)N1 (stereo not drawn)
15,< 5.00,CC1=C(C(=O)OCc2ccccc2)C(c2cccc(Cl)c2)NC(=O)N1 (stereo not drawn)
16,< 5.00,CC1=C(C(=O)OC(C)C)C(c2ccc(Cl)cc2)NC(=S)N1 (stereo not drawn)
17,< 5.00,CC1=C(C(=O)OC2CCCC2)C(c2ccc(C)c(Br)c2)NC(=O)N1 (stereo not drawn)
18,< 5.00,CC1=C(C(=O)OCc2ccccc2)C(c2c(F)cccc2Cl)NC(=O)N1 (stereo not drawn)
19,< 5.00,CC1=C(C(=O)OC(C)C)C(c2ccc(C(C)(C)C)cc2)NC(=O)N1 (stereo not drawn)
20,< 5.00,CCN1C(=O)NC(c2c(F)cccc2Cl)C(C(=O)OC)=C1C (stereo not drawn)
21,≤ 4.70,COC(=O)C1=C(C)N(C)C(=S)NC1c1cccc(OC)c1 (stereo not drawn)
22,< 5.00,CCOC(=O)C1=C(C)NC(=S)NC1c1ccc(CC)cc1 (stereo not drawn)
23,< 5.00,CC1=C(C(=O)OCCC(C)C)C(c2ccc(Cl)c(Cl)c2)NC(=O)N1 (stereo not drawn)
24,< 5.00,COC(=O)C1=C(C)NC(=O)NC1c1cc(C)ccc1C (stereo not drawn)
25,< 5.00,CC1=C(C(=O)OC(C)C)C(c2ccc(F)c(Br)c2)NC(=O)N1 (stereo not drawn)

row,pIC50,Compound
1,< 5.00,COCCOC(=O)C1=C(C)NC(=S)NC1c1cccc(Br)c1 (stereo not drawn)
2,< 5.00,CC1=C(C(=O)OCC(Cl)(Cl)Cl)C(c2ccccc2)NC(=O)N1 (stereo not drawn)
3,< 5.00,CCCOC(=O)C1=C(C)NC(=O)NC1c1ccccc1Br (stereo not drawn)
4,< 5.00,COC(=O)C1=C(C)N(C)C(=O)NC1c1ccc(C(C)(C)C)cc1 (stereo not drawn)
5,< 5.00,C=CCOC(=O)C1=C(C)NC(=O)NC1c1ccc(N(CC)CC)cc1 (stereo not drawn)
6,< 5.00,CCOC(=O)C1=C(C)NC(=O)NC1c1ccc(OCC)cc1 (stereo not drawn)
7,< 5.00,CCc1ccc(C2NC(=O)NC(C)=C2C(=O)OC2CCCC2)cc1 (stereo not drawn)
8,< 5.00,CCCC1=C(C(=O)OCC)C(c2ccc([N+](=O)[O-])cc2)NC(=O)N1C (stereo not drawn)
9,< 5.00,COc1cc2c(cc1C1NC(=S)NC(C)=C1C(=O)N(C)C)CCCC2 (stereo not drawn)
10,< 5.00,CSc1ccc(C2NC(=O)NC(C)=C2C(=O)OCc2ccccc2)cc1 (stereo not drawn)
11,≥ 5.30,COCCOC(=O)C1=C(C)NC(=S)NC1c1ccc(F)cc1 (stereo not drawn)
12,< 5.00,CCCC1=C(C(=O)OCC)C(c2ccc(C(F)(F)F)cc2)NC(=O)N1C (stereo not drawn)
13,< 5.00,CC1=C(C(=O)OC(C)(C)C)C(c2ccccc2Cl)NC(=O)N1 (stereo not drawn)
14,< 5.00,CC1=C(C(=O)OCC2CCCCC2)C(c2ccccc2F)NC(=O)N1 (stereo not drawn)
15,< 5.00,CC1=C(C(=O)OCc2ccc(C)cc2)C(c2ccccc2F)NC(=O)N1 (stereo not drawn)
16,< 5.00,CCCCCOC(=O)C1=C(C)NC(=S)NC1c1ccccc1 (stereo not drawn)
17,≥ 5.30,CCOC(=O)C1=C(C)NC(=S)NC1c1cccc(OC2CCCC2)c1 (stereo not drawn)
18,< 5.00,CC1=C(C(=O)N(C)C)C(c2ccccc2F)NC(=S)N1 (stereo not drawn)
19,< 5.00,CCN(CC)C(=O)C1=C(C)NC(=S)NC1c1cc(Br)cc(OC)c1OC (stereo not drawn)
20,< 5.00,COC(=O)C1=C(CN2CCCC2)NC(=O)NC1c1cc(C)ccc1C (stereo not drawn)
21,< 5.00,COC(=O)C1=C(C)NC(=O)NC1c1ccc(C(C)(C)C)cc1 (stereo not drawn)
22,< 5.00,COC(=O)C1=C(C)N(C)C(=S)NC1c1ccccc1OC (stereo not drawn)
23,≥ 5.00,CCOC(=O)C1=C(c2ccccc2)NC(=S)NC1c1ccccc1 (stereo not drawn)
24,< 5.00,C=CCOC(=O)C1=C(C)NC(=O)NC1c1ccc(C(C)(C)C)cc1 (stereo not drawn)
25,< 5.00,CCOC(=O)C1=C(C)NC(=O)NC1c1ccc(SC)cc1 (stereo not drawn)

# Same assay, conditions: Table 2; read-out: hTRPA1 Fluor IC50
row,pIC50,Compound
1,< 5.00,Cn1c(=O)c2c(ncn2CC(=O)NCC(c2cccs2)N2CCCC2)n(C)c1=O (stereo not drawn) [Compound 312]
2,< 5.00,Cn1c(=O)c2c(ncn2CC(=O)N(Cc2ccccc2)CC(F)(F)F)n(C)c1=O [Compound 288]
3,≤ 4.70,CC(NC(=O)Cn1cnc2c1c(=O)n(C)c(=O)n2C)c1ccc(-n2ccnc2)cc1 (stereo not drawn) [Compound 325]
4,< 5.00,Cn1c(=O)c2c(ncn2CC(=O)Nc2ccccc2-c2nc3ccccc3[nH]2)n(C)c1=O [Compound 260]
5,< 5.00,CC1CCCC(NC(=O)Cn2cnc3c2c(=O)n(C)c(=O)n3C)C1C (stereo not drawn) [Compound 349]
6,< 5.00,CC(=O)c1ccccc1NC(=O)Cn1cnc2c1c(=O)n(C)c(=O)n2C [Compound 309]
7,< 5.00,Cn1c(=O)c2c(ncn2CC(=O)Nc2ccccc2SCc2ccccc2)n(C)c1=O [Compound 351]
8,≤ 4.70,COc1ccc(Nc2ccc(NC(=O)Cn3cnc4c3c(=O)n(C)c(=O)n4C)cc2)cc1 [Compound 249]
9,≤ 4.70,Cc1ccc(NC(=O)Cn2cnc3c2c(=O)n(C)c(=O)n3C)c(Br)c1 [Compound 265]
10,≥ 5.30,Cn1c(=O)c2c(ncn2CC(=O)Nc2cc(F)cc(F)c2)n(C)c1=O [Compound 386]
11,< 5.00,CC(=O)c1cccc(NC(=O)Cn2cnc3c2c(=O)n(C)c(=O)n3C)c1 [Compound 380]
12,< 5.00,Cn1c(=O)c2c(ncn2CC(=O)NC(C)(C)C)n(C)c1=O [Compound 289]
13,< 5.00,CC(C(=O)N(C)c1ccccc1)n1cnc2c1c(=O)n(C)c(=O)n2C (stereo not drawn) [Compound 301]
14,≥ 5.30,Cn1c(=O)c2c(ncn2CC(=O)Nc2ccc(N3CCCCCC3)cc2)n(C)c1=O [Compound 354]
15,< 5.00,Cn1c(=O)c2c(ncn2CC(=O)NC(c2ccccc2)c2cccs2)n(C)c1=O (stereo not drawn) [Compound 352]
16,≥ 5.00,COC(=O)c1cccc(NC(=O)Cn2cnc3c2c(=O)n(C)c(=O)n3C)c1 [Compound 290]
17,< 5.00,Cn1c(=O)c2c(ncn2CC(=O)NCc2cccc(C(F)(F)F)c2)n(C)c1=O [Compound 275]
18,< 5.00,CC(C(=O)Nc1ccc(F)cc1)n1cnc2c1c(=O)n(C)c(=O)n2C (stereo not drawn) [Compound 327]

row,pIC50,Compound
1,≥ 5.00,Cc1sc(NC(=O)Cn2cnc3c2c(=O)n(C)c(=O)n3C)nc1-c1ccc(Cl)cc1 [Compound 287]
2,< 5.00,Cn1c(=O)c2c(ncn2CC(=O)NCc2ccc(F)cc2)n(C)c1=O [Compound 238]
3,≥ 5.00,CC(C(=O)Nc1cc(Cl)cc(Cl)c1)n1cnc2c1c(=O)n(C)c(=O)n2C (stereo not drawn) [Compound 314]
4,< 5.00,CCNC(=O)Cn1cnc2c1c(=O)n(C)c(=O)n2C [Compound 216]
5,< 5.00,Cn1c(=O)c2c(ncn2CC(=O)Nc2ccc3c(c2)OCCO3)n(C)c1=O [Compound 246]
6,≥ 5.00,Cn1c(=O)c2c(ncn2CC(=O)Nc2ccccc2Sc2ccccc2)n(C)c1=O [Compound 384]
7,< 5.00,Cn1c(=O)c2c(ncn2CC(=O)NCC(c2ccccc2)N2CCCC2)n(C)c1=O (stereo not drawn) [Compound 321]
8,< 5.00,Cn1c(=O)c2c(ncn2CC(=O)Nc2ccccc2N2CCOCC2)n(C)c1=O [Compound 248]
9,< 5.00,Cc1cc(C)c(NC(=O)Cn2cnc3c2c(=O)n(C)c(=O)n3C)c(Cl)c1 [Compound 330]
10,< 5.00,Cn1c(=O)c2c(ncn2CC(=O)NC2CCCCCCC2)n(C)c1=O [Compound 278]
11,< 5.00,CC(C(=O)Nc1cccc(C(F)(F)F)c1)n1cnc2c1c(=O)n(C)c(=O)n2C (stereo not drawn) [Compound 318]
12,< 5.00,Cc1ccnc(NC(=O)Cn2cnc3c2c(=O)n(C)c(=O)n3C)c1 [Compound 370]
13,< 5.00,COc1ccc(CNC(=O)Cn2cnc3c2c(=O)n(C)c(=O)n3C)cc1OC [Compound 319]
14,< 5.00,Cc1ccc(NC(=O)NC(=O)Cn2cnc3c2c(=O)n(C)c(=O)n3C)c(C)c1 [Compound 292]
15,≥ 5.00,Cn1c(=O)c2c(ncn2CC(=O)Nc2ccc3c(c2)OCCCO3)n(C)c1=O [Compound 326]
16,< 5.00,CCn1c2ccccc2c2cc(NC(=O)Cn3cnc4c3c(=O)n(C)c(=O)n4C)ccc21 [Compound 254]
17,< 5.00,Cn1c(=O)c2c(ncn2CC(=O)NCc2ccco2)n(C)c1=O [Compound 368]
18,≥ 5.00,Cn1c(=O)c2c(ncn2CC(=O)Nc2ccc(F)c(F)c2)n(C)c1=O [Compound 245]

row,Compound,pIC50
1,COC(=O)c1ccc(NC(=O)Cn2cnc3c2c(=O)n(C)c(=O)n3C)cc1 [Compound 363],≥ 5.00
